Consider 34 molecules from US10617680B2 (CELGENE QUANTICEL RESEARCH, INC., priority 2017, dated 2020).

Bounds are passed on as bounds.

CBP, sequence (Q92793 1081-1197): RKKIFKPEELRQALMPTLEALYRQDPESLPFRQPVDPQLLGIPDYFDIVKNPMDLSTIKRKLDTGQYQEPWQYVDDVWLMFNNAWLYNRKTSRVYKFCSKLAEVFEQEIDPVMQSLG

This experiment concerns the target CBP (Homo sapiens (Human), UniProt Q92793). Put plainly: In vitro CBP inhibition (AlphaScreen, biotinylated H4-tetraacetyl peptide). The conditions noted are these: AlphaScreen, Table 29; read-out: CBP IC50. Format: binding. An outline of the steps:
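His-tagged CBP expressed in E. coli (50 nM final) incubated with biotinylated H4K5/8/12/16(Ac) peptide (20 nM final) in 50 mM HEPES pH 7.3, 10 mM NaCl, 0.25 mM TCEP, 0.1% BSA, 0.005% Brij-35, 0.4% DMSO, 20 min at room temp.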
On to `COc1ccc(C#N)c(-n2cc(-c3cn(C)c(=O)cc3-c3ccc(=O)[nH]c3)cn2)c1` [Example 260, 4-Methoxy-2-[4-(1′-methyl-6,6′-dioxo-1,6,1′,6′-tetrahydro-[3,4′]bipyridinyl-3′-yl)-pyrazol-1-yl]-benzonitrile], for which the IC50 was under 0.5 µM.

On to `COc1ccc(C#N)c(-n2cc(-c3cn(C)c(=O)cc3-c3ccccc3)cn2)c1` [Example 261, 4-Methoxy-2-[4-(1-methyl-6-oxo-4-phenyl-1,6-dihydro-pyridin-3-yl)-pyrazol-1-yl]-benzonitrile], for which the IC50 is under 0.5 µM. Turning to `COc1ccc(C#N)c(-n2cc(-c3cn(C)c(=O)cc3-c3ccc(F)cc3)cn2)c1` [Example 263, 2-{4-[4-(4-Fluoro-phenyl)-1-methyl-6-oxo-1,6-dihydro-pyridin-3-yl]-pyrazol-1-yl}-4-methoxy-benzonitrile], the IC50 is under 0.5 µM.

Take `COc1ccc(C#N)c(-n2cc(-c3cn(C)c(=O)cc3-c3ccc(OC)nc3)cn2)c1` [Example 264, 4-Methoxy-2-[4-(6-methoxy-1′-methyl-6′-oxo-1′,6′-dihydro-[3,4′]bipyridinyl-3′-yl)-pyrazol-1-yl]-benzonitrile]: the half-inhibitory concentration (IC50) is under 0.5 µM. Regarding `CCOc1ccc(-c2cc(=O)n(C)cc2-c2cnn(-c3cc(OC)ccc3C#N)c2)cn1` [Example 265, 2-[4-(6-Ethoxy-1′-methyl-6′-oxo-1′,6′-dihydro-[3,4′]bipyridinyl-3′-yl)-pyrazol-1-yl]-4-methoxy-benzonitrile], the IC50 is under 0.5 µM. Take `COc1ccc(C#N)c(-n2cc(-c3cn(C)c(=O)cc3-c3ccnc(OC)c3)cn2)c1` [Example 266, 4-Methoxy-2-[4-(2′-methoxy-1-methyl-6-oxo-1,6-dihydro-[4,4′]bipyridinyl-3-yl)-pyrazol-1-yl]-benzonitrile]: the IC50 was under 0.5 µM. For the molecule `COc1ccc(C(=O)O)c(-n2cc(-c3cn(C)c(=O)cc3-c3ccccc3)cn2)c1` [Example 267, 4-Methoxy-2-[4-(1-methyl-6-oxo-4-phenyl-1,6-dihydro-pyridin-3-yl)-pyrazol-1-yl]-benzoic acid], the IC50 was under 0.5 µM. Turning to `COc1ccc(C(=O)O)c(-n2cc(-c3cn(C)c(=O)cc3-c3ccc(F)cc3)cn2)c1` [Example 269, 2-{4-[4-(4-Fluoro-phenyl)-1-methyl-6-oxo-1,6-dihydro-pyridin-3-yl]-pyrazol-1-yl}-4-methoxy-benzoic acid], the IC50 was under 0.5 µM. The result for `COc1ccc(C(=O)O)c(-n2cc(-c3cn(C)c(=O)cc3-c3ccc(OC)nc3)cn2)c1` [Example 270, 4-Methoxy-2-[4-(6-methoxy-1′-methyl-6′-oxo-1′,6′-dihydro-[3,4′]bipyridinyl-3∝-yl)-pyrazol-1-yl]-benzoic acid] reads under 0.5 µM; that for `CCOc1ccc(-c2cc(=O)n(C)cc2-c2cnn(-c3cc(OC)ccc3C(=O)O)c2)cn1` [Example 271, 2-[4-(6-Ethoxy-1′-methyl-6′-oxo-1′,6′-dihydro-[3,4′]bipyridinyl-3′-yl)-pyrazol-1-yl]-4-methoxy-benzoic acid], under 0.5 µM; that for `COc1ccc(C(=O)O)c(-n2cc(-c3cn(C)c(=O)cc3-c3ccnc(OC)c3)cn2)c1` [Example 272, 4-Methoxy-2-[4-(2′-methoxy-1-methyl-6-oxo-1,6-dihydro-[4,4′]bipyridinyl-3-yl)-pyrazol-1-yl]-benzoic acid], under 0.5 µM. As to `COc1ccc(-c2cc(=O)n(C)cc2-c2cnn(-c3cccc(F)c3C#N)c2)cn1` [Example 274, 2-Fluoro-6-[4-(6-methoxy-1′-methyl-6′-oxo-1′,6′-dihydro-[3,4′]bipyridinyl-3′-yl)-pyrazol-1-yl]-benzonitrile], the IC50 was under 0.5 µM. Turning to `Cn1cc(-c2cnn(-c3cccc(F)c3C#N)c2)c(-c2ccc(Cl)cc2)cc1=O` [Example 275, 2-{4-[4-(4-Chloro-phenyl)-1-methyl-6-oxo-1,6-dihydro-pyridin-3-yl]-pyrazol-1-yl}-6-fluoro-benzonitrile], the IC50 was under 0.5 µM. Turning to `Cn1ccc(-c2cc(=O)n(C)cc2-c2cnn(-c3cccc(Cl)c3C#N)c2)cc1=O` [Example 276, 2-Chloro-6-[4-(1,1′-dimethyl-6,2′-dioxo-1,6,1,′,2′-tetrahydro-[4,4′]bipyridinyl-3-yl)-pyrazol-1-yl]-benzonitrile], the IC50 was under 0.5 µM. The same measure for `COc1ccc(-c2cc(=O)n(C)cc2-c2cnn(-c3cccc(Cl)c3C#N)c2)cn1` [Example 277, 2-Chloro-6-[4-(6-methoxy-1′-methyl-6′-oxo-1′,6′-dihydro-[3,4′]bipyridinyl-3′-yl)-pyrazol-1-yl]-benzonitrile]: under 0.5 µM. Take `COc1cc(-c2cc(=O)n(C)cc2-c2cnn(-c3cccc(F)c3C#N)c2)ccc1C` [Example 278, 2-fluoro-6-(4-(4-(3-methoxy-4-methylphenyl)-1-methyl-6-oxo-1,6-dihydro-pyridin-3-yl)-1H-pyrazol-1-yl)benzonitrile]: the IC50 is under 0.5 µM. Regarding `COc1cc(-c2cc(=O)n(C)cc2-c2cnn(-c3cccc(Cl)c3C#N)c2)ccc1C` [Example 279, 2-chloro-6-(4-(4-(3-methoxy-4-methylphenyl)-1-methyl-6-oxo-1,6-dihydropyridin-3-yl)-1H-pyrazol-1-yl)benzonitrile], the IC50 is under 0.5 µM. `CCc1ncc(-c2cc(=O)n(C)cc2-c2cnn(-c3cccc(Cl)c3C#N)c2)cn1` [Example 280, 2-chloro-6-(4-(4-(2-ethylpyrimidin-5-yl)-1-methyl-6-oxo-1,6-dihydropyridin-3-yl)-1H-pyrazol-1-yl)benzonitrile]: the IC50 is under 0.5 µM. As for `CCOc1cc(=O)n(C)cc1-c1cnn(-c2ccccc2C#N)c1` [Example 281, 2-(4-(4-ethoxy-1-methyl-6-oxo-1,6-dihydropyridin-3-yl)-1H-pyrazol-1-yl)benzonitrile], the IC50 was under 0.5 µM. Regarding `CCOc1cc(=O)n(C)cc1-c1cnn(-c2ccccc2C(N)=O)c1` [Example 282, 2-(4-(4-ethoxy-1-methyl-6-oxo-1,6-dihydropyridin-3-yl)-1H-pyrazol-1-yl)benzamide], the IC50 was under 0.5 µM. For `Cn1cc(-c2cnn(-c3ccccc3C#N)c2)c(OCCN2CCOCC2)cc1=O` [Example 283, 2-(4-(1-methyl-4-(2-morpholinoethoxy)-6-oxo-1,6-dihydropyridin-3-yl)-1H-pyrazol-1-yl)benzonitrile], the IC50 is under 0.5 µM.

As to `Cn1ccc(-c2cc(=O)n(C)cc2-c2cnn(-c3ccccc3S(C)(=O)=O)c2)cc1=O` [Example 284, 5-[1-(2-Methanesulfonyl-phenyl)-1H-pyrazol-4-yl]-1,1′-dimethyl-1H,1′H-[4,4′]bipyridinyl-2,2′-dione], the IC50 was under 0.5 µM.

Consider `COc1ccc(-c2cc(=O)n(C)cc2-c2cnn(-c3ccccc3S(C)(=O)=O)c2)cn1` [Example 285, 5′-[1-(2-Methanesulfonyl-phenyl)-1H-pyrazol-4-yl]-6-methoxy-1′-methyl-1′H-[3,4′]bipyridinyl-2′-one], for which the IC50 was under 0.5 µM. The result for `Cn1cc(-c2cc(=O)n(C)cc2-c2cnn(-c3ccccc3S(C)(=O)=O)c2)ccc1=O` [Example 287] reads 0.5 to 5 µM. The same measure for `Cn1cc(-c2cnn(-c3ccccc3C(=O)NC#N)c2)c(-c2ccc(F)cc2)cc1=O` [Example 288, N-cyano-2-(4-(4-(4-fluorophenyl)-1-methyl-6-oxo-1,6-dihydropyridin-3-yl)-1H-pyrazol-1-yl)benzamide]: under 0.5 µM; for `Cn1cc(-c2cc(=O)n(C)cc2-c2cnn(-c3ccccc3C(=O)NC#N)c2)cn1` [Example 289, N-cyano-2-(4-(1-methyl-4-(1-methyl-1H-pyrazol-4-yl)-6-oxo-1,6-dihydropyridin-3-yl)-1H-pyrazol-1-yl)benzamide]: under 0.5 µM; for `COc1ccc(-c2cc(=O)n(C)cc2-c2cnn(-c3ccccc3C(=O)NC#N)c2)cc1` [Example 290, N-cyano-2-(4-(4-(4-methoxyphenyl)-1-methyl-6-oxo-1,6-dihydropyridin-3-yl)-1H-pyrazol-1-yl)benzamide]: under 0.5 µM. With `Cn1cc(-c2cnn(-c3ccccc3C(=O)NC#N)c2)c(-c2ccc(Cl)cc2)cc1=O` [Example 291, 2-(4-(4-(4-chlorophenyl)-1-methyl-6-oxo-1,6-dihydropyridin-3-yl)-1H-pyrazol-1-yl)-N-cyanobenzamide], the IC50 is under 0.5 µM. Take `Cn1ccc(-c2cc(=O)n(C)cc2-c2cnn(-c3ccccc3C(=O)NC#N)c2)cc1=O` [Example 293, N-cyano-2-(4-(1,1′-dimethyl-2′,6-dioxo-1,1′,2′,6-tetrahydro-[4,4′-bipyridin]-3-yl)-1H-pyrazol-1-yl)benzamide]: the IC50 is under 0.5 µM. On to `CNc1ncc(-c2cc(=O)n(C)cc2-c2cnn(-c3ccccc3C(=O)NC#N)c2)cn1` [Example 295, N-cyano-2-(4-(1-methyl-4-(2-(methylamino)pyrimidin-5-yl)-6-oxo-1,6-dihydropyridin-3-yl)-1H-pyrazol-1-yl)benzamide], for which the IC50 is under 0.5 µM. As for `CCOc1ccc(-c2cc(=O)n(C)cc2-c2cnn(-c3ccccc3C(=O)NC#N)c2)cn1` [Example 296, N-cyano-2-(4-(6-ethoxy-1′-methyl-6′-oxo-1′,6′-dihydro-[3,4′-bipyridin]-3′-yl)-1H-pyrazol-1-yl)benzamide], the IC50 was under 0.5 µM.

For the molecule `Cn1cc(-c2cnn(-c3ccccc3-c3nnn[nH]3)c2)c(-c2ccc(Cl)cc2)cc1=O` [Example 297, 5-(1-(2-(1H-tetrazol-5-yl)phenyl)-1H-pyrazol-4-yl)-4-(4-chlorophenyl)-1-methylpyridin-2(1H)-one], the IC50 is under 0.5 µM. As for `COc1ccc(-c2cc(=O)n(C)cc2-c2cnn(-c3ccccc3-c3nnn[nH]3)c2)cc1` [Example 298, 4-(4-Methoxy-phenyl)-1-methyl-5-{1-[2-(1H-tetrazol-5-yl)-phenyl]-1H-pyrazol-4-yl}-1H-pyridin-2-one], the IC50 was under 0.5 µM. As for `Cn1cc(-c2cc(=O)n(C)cc2-c2cnn(-c3ccccc3-c3nnn[nH]3)c2)cn1` [Example 300, 1-Methyl-4-(1-methyl-1H-pyrazol-4-yl)-5-{1-[2-(1H-tetrazol-5-yl)-phenyl]-1H-pyrazol-4-yl}-1H-pyridin-2-one], the IC50 is under 0.5 µM.
